From patent US20240300991A1, “NUCLEOSIDE DERIVATIVE HAVING MULTI-TARGET KINASE INHIBITORY ACTIVITY AND PHARMACEUTICAL COMPOSITION FOR PREVENTING AND TREATING CANCER COMPRISING SAME” (FUTURE MEDICINE CO., LTD., priority 2021, published 2024)
pIC50: −log10 of the molar value.

How the values were obtained:
DYRK1A = molecular target: T1, DYRK1A (Homo sapiens, UniProt Q13627); test: Kinase inhibition test (DNA-tagged kinase, affinity resin, qPCR readout); type: binding; design: key: (−) indicates no effect; (+) indicates weak inhibitory activity; (++) indicates a moderate level of inhibitory activity; (+++) indicates strong inhibitory activity; details: 1 μM of compound
T1 construct: made in house
Description: (§1) In order to examine the inhibitory activity of the nucleoside derivatives of the present invention synthesized in the Preparation Examples against kinases, the nucleoside derivatives were confirmed to have inhibitory activity against neurotrophic tyrosine kinase receptor type 1 or tropomyosin receptor kinase A (NTRK1), casein kinase 1 isoform delta (CSNK1D), dual specificity tyrosine-phosphorylation-regulated kinase 1A (DYRK1A), dual specificity tyrosine-phosphorylation-regulated kinase 1B (DYRK1B) and receptor-type tyrosine-protein kinase or fms like tyrosine kinase 3 or cluster of differentiation antigen 135 (CD135) or fetal liver kinase-2 (Flk2) (FLT3).
(§2) The inhibition measurement method is as follows. Most of the kinases were produced by culturing a phage in which BL21 E. coli was tagged with a kinase at 32° C. until lysis, followed by centrifugation and filtration. Further, the kinases were produced using HEK-293 cells. Thereafter, the kinases were DNA tagged for qPCR. After an affinity resin was prepared by stirring a biotin-tagged substrate onto streptavidin-coated beads for 30 minutes, a non-specifically bound substrate was washed with a buffer (SeaBlock (Pierce), 1% BSA, 0.05% Tween 20, 1 mM DTT).
(§3) For a kinase test, the kinase, the substrate, the affinity resin, and a test material dissolved in dimethyl sulfoxide were stirred together in a buffer (20% SeaBlock, 0.17×PBS, 0.05% Tween20, and 6 mM DTT) at room temperature for 1 hour. Thereafter, an affinity substrate was washed with a buffer (1×PBS, 0.05% Tween20), and then suspended in an elution buffer (1×PBS, 0.05% Tween20, 0.5 μM non-biotinylated affinity ligand), and the resulting suspension was stirred. The concentration of the kinase was quantified by qPCR.

NTRK1 = molecular target: T2, NTRK1 (Homo sapiens, UniProt P04629); test: as above; type: binding; design: key: (−) indicates no effect; (+) indicates weak inhibitory activity; (++) indicates a moderate level of inhibitory activity; (+++) indicates strong inhibitory activity; details: 1 μM of compound
T2 construct: made in house
T2 sequence (P04629 33-796): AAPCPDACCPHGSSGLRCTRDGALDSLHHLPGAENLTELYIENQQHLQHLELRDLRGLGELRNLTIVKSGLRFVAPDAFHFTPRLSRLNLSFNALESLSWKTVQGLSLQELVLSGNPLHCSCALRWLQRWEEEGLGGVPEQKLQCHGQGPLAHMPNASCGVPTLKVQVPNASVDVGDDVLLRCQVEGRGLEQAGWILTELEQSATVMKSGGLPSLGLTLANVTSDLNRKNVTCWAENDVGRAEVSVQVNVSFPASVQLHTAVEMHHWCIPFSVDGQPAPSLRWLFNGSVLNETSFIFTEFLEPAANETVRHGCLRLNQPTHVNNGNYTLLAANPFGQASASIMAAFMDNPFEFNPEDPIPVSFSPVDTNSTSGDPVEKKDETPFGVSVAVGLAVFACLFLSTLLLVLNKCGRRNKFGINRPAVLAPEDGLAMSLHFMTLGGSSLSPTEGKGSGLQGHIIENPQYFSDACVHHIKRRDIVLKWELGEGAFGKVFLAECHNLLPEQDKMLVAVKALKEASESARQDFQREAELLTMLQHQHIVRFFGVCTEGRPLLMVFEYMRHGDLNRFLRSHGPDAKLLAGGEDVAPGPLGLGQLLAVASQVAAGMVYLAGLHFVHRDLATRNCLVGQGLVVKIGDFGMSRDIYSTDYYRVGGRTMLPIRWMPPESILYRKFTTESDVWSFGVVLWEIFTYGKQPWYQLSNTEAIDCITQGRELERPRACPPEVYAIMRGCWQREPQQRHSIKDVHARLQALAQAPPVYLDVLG
Description: as §1, §2, §3

CSNK1D = molecular target: T3, CSNK1D (Homo sapiens, UniProt P48730); test: as above; type: binding; design: key: (−) indicates no effect; (+) indicates weak inhibitory activity; (++) indicates a moderate level of inhibitory activity; (+++) indicates strong inhibitory activity; details: 1 μM of compound
T3 construct: made in house
T3 sequence (P48730 whole entry): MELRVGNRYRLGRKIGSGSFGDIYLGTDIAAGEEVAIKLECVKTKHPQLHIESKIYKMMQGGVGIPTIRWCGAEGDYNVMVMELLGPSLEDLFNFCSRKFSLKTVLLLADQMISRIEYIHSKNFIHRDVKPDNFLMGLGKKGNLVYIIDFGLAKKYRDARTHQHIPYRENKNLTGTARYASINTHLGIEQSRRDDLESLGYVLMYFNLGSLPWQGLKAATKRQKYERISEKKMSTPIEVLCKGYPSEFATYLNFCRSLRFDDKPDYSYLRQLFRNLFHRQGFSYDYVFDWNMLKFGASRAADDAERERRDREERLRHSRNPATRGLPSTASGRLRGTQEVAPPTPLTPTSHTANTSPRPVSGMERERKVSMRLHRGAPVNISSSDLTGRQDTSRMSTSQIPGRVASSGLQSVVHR
Description: as §1, §2, §3

DYRK1B = molecular target: T4, DYRK1B (Homo sapiens, UniProt Q9Y463); test: as above; type: binding; design: key: (−) indicates no effect; (+) indicates weak inhibitory activity; (++) indicates a moderate level of inhibitory activity; (+++) indicates strong inhibitory activity; details: 1 μM of compound
T4 construct: made in house
T4 sequence (Q9Y463 whole entry): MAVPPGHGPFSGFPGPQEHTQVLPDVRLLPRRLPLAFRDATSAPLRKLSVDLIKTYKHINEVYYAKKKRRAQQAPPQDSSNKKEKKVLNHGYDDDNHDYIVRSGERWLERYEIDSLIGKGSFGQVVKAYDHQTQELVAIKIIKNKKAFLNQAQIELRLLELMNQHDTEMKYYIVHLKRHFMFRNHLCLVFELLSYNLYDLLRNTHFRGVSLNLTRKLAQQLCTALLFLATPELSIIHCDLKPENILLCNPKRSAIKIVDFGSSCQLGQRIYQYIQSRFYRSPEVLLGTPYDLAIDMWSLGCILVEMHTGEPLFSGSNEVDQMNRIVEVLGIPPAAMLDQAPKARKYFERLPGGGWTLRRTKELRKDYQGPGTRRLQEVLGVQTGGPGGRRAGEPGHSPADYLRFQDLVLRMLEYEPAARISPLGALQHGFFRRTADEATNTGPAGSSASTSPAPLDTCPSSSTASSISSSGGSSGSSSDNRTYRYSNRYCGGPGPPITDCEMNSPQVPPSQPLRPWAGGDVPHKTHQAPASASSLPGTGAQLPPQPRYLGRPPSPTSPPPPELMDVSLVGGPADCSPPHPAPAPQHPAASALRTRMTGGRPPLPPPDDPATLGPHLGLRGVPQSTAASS
Description: as §1, §2, §3

[1] = test system: HCT116 (colon cancer cells); test: Inhibitory activity against cancer cells (sulforhodamine B staining); type: cell-based; details: 3 days, SRB staining
Protocol: (§4) In order to examine the anticancer activity of the nucleoside derivatives of the present invention synthesized in the Preparation Examples, the ICso of each of A549 (lung cancer cells), HCT116 (colon cancer cells), MDA-MB-231 (breast cancer cells), SK-Hep-1 (liver cancer cells), SNU638 (stomach cancer cells) and PC-3 (prostate cancer cells) against cancer cells was measured.
(§5) The test method is as follows. Cells were allowed to stand for 1 day and set as a control on day 0. Further, after a test material was added to the cells, the cells were allowed to stand for 3 days. Thereafter, the cells were stained with 1% acetic acid and 0.4% sulforhodamine B. The stained cells were dried and dissolved in 10 mM Tris (pH 10.0). Absorbance was measured at 515 nm, and the degree of cell division was determined using the following equation. After calculation as Cell division (%)=(average absorbancetest material−average absorbanceday 0)/(average absorbance control-average absorbanceday 0)×100, the degree of cell division was calculated through a non-linear regression analysis using Table Curve 2D v5.01 (Systat Software Inc., San Jose, CA, USA).

[2] = test system: SNU638 (stomach cancer cells); test: as above; type: cell-based; details: 3 days, SRB staining
Protocol: as §4, §5

[3] = test system: MDA-MB-231 (breast cancer cells); test: as above; type: cell-based; details: 3 days, SRB staining
Protocol: as §4, §5

A549 (lung cancer cells) = test: as above; type: cell-based; details: 3 days, SRB staining
Protocol: as §4, §5

[4] = test system: SK-Hep-1 (liver cancer cells); test: as above; type: cell-based; details: 3 days, SRB staining
Protocol: as §4, §5

[5] = test system: PC-3 (prostate cancer cells); test: as above; type: cell-based; details: 3 days, SRB staining
Protocol: as §4, §5

Row | SMILES | DYRK1A inhibitory activity (DYRK1A) | NTRK1 inhibitory activity (NTRK1) | CSNK1D inhibitory activity (CSNK1D) | DYRK1B inhibitory activity (DYRK1B) | pIC50 [1] | pIC50 [2] | pIC50 [3] | pIC50 (A549 (lung cancer cells)) | pIC50 [4] | pIC50 [5] | pIC50 ([1]; Homo sapiens, HCT-116, 72 h) | pIC50 ([2]; Homo sapiens, SNU-638, 72 h) | pIC50 ([3]; Homo sapiens, 72 h) | pIC50 (A549 (lung cancer cells); Homo sapiens, 72 h) | pIC50 ([4]; Homo sapiens, SK-HEP1, 72 h) | pIC50 ([5]; 72 h)
1 | C#Cc1cn([C@@H]2S[C@H](COC(=O)c3c(C)cccc3C)[C@@H](O)[C@H]2O)c2ncnc(N)c12 [Compound 7e] | ++ | +++ | ++ | ++ | 5.19 | 5.32 | 5.33 | 5.19 | 5.36 | 5.25 |  |  |  |  |  | 
2 | C#Cc1cn([C@@H]2S[C@H](COC(=O)c3ccncc3)[C@@H](O)[C@H]2O)c2ncnc(N)c12 [Compound 7f] | ++ | +++ | ++ | ++ | 7.42 | 7.32 | 7.13 | 7.15 | 7.30 | 7.11 |  |  |  |  |  | 
3 | N#Cc1cn([C@@H]2S[C@H](COC(=O)c3ccccc3)[C@@H](O)[C@H]2O)c2ncnc(N)c12 [Compound 7g] | +++ | ++ | +++ | +++ | 5.44 | 5.42 | 5.81 | 5.59 | 5.25 | 5.53 |  |  |  |  |  | 
4 | NC(=O)c1cn([C@@H]2S[C@H](COC(=O)c3ccccc3)[C@@H](O)[C@H]2O)c2ncnc(N)c12 [Compound 7h] | +++ | ++ | +++ | +++ | 5.79 | 5.28 | 5.17 | 5.32 | 5.29 | 5.45 |  |  |  |  |  | 
5 | C#Cc1cn([C@@H]2S[C@H](CNC(=O)c3ccc(OC)cc3)[C@@H](O)[C@H]2O)c2ncnc(N)c12 [Compound 8c] | +++ | +++ | ++ | ++ | 4.86 | 4.91 | 4.98 | 5.00 | 4.91 | 4.83 |  |  |  |  |  | 
6 | N#Cc1cn([C@@H]2S[C@H](CNC(=O)c3ccccc3)[C@@H](O)[C@H]2O)c2ncnc(N)c12 [Compound 8d] | ++ | +++ | ++ | +++ | 5.05 | 4.63 | 5.03 | 4.95 | 4.86 | 5.18 |  |  |  |  |  | 
7 | NC(=O)c1cn([C@@H]2S[C@H](CNC(=O)c3ccccc3)[C@@H](O)[C@H]2O)c2ncnc(N)c12 [Compound 8e] | ++ | ++ | ++ | ++ | 4.90 | 5.03 | 5.17 | 4.35 | 5.00 | 5.33 |  |  |  |  |  | 
8 | N#Cc1cn([C@@H]2S[C@H](CN=[N+]=[N-])[C@@H](O)[C@H]2O)c2ncnc(N)c12 [Compound 9b] | +++ | +++ | +++ | +++ | 6.25 | 6.92 | 6.42 | 6.64 | 5.98 | 6.35 |  |  |  |  |  | 
9 | [N-]=[N+]=NC[C@H]1S[C@@H](n2cc(C(N)=O)c3c(N)ncnc32)[C@H](O)[C@@H]1O [Compound 9c] | +++ | +++ | +++ | +++ | 6.07 | 6.46 | 6.59 | 6.62 | 6.11 | 6.44 |  |  |  |  |  | 
10 | N#Cc1cn([C@@H]2S[C@H](CN)[C@@H](O)[C@H]2O)c2ncnc(N)c12 [Compound 10b] | +++ | ++ | ++ | +++ | 5.56 | 5.83 | 5.32 | 5.42 | 5.79 | 5.61 |  |  |  |  |  | 
11 | NC[C@H]1S[C@@H](n2cc(C(N)=O)c3c(N)ncnc32)[C@H](O)[C@@H]1O [Compound 10c] | ++ | ++ | ++ | ++ | 5.86 | 5.59 | 5.61 | 5.60 | 5.75 | 5.56 |  |  |  |  |  | 
12 | N#Cc1cn([C@@H]2S[C@H](CNC(N)=O)[C@@H](O)[C@H]2O)c2ncnc(N)c12 [Compound 11aii] | ++ | ++ | ++ | ++ | 5.74 | 5.17 | 5.97 | 5.61 | 5.54 | 5.45 |  |  |  |  |  | 
13 | NC(=O)NC[C@H]1S[C@@H](n2cc(C(N)=O)c3c(N)ncnc32)[C@H](O)[C@@H]1O [Compound 11aiii] | ++ | ++ | ++ | ++ | 5.87 | 5.25 | 5.61 | 5.34 | 5.13 | 5.55 |  |  |  |  |  | 
14 | C#Cc1cn([C@@H]2S[C@H](CNCC)[C@@H](O)[C@H]2O)c2ncnc(N)c12 [Compound 11b, (2R,3R,4S,5R)-2-(4-amino-5-ethynyl-7H-pyrrolo[2,3-d]pyrimidin-7-yl)-5-((ethylamino)methyl)tetrahydrothiophene-3,4-diol] | ++ | +++ | +++ | ++ |  |  |  |  |  |  | 4.89 | 4.97 | 4.84 | 4.91 | 4.89 | 4.85
15 | C#Cc1cn([C@@H]2SC[C@@H](O)[C@H]2O)c2ncnc(N)c12 [Compound 13a] | ++ | ++ | ++ | ++ | 6.07 | 5.92 | 5.94 | 6.23 | 5.90 | 5.86 |  |  |  |  |  | 
16 | Nc1ncnc2c1c(-c1ccco1)cn2[C@@H]1SC[C@@H](O)[C@H]1O [Compound 13b] | +++ | ++ | ++ | +++ | 6.07 | 5.88 | 5.88 | 6.02 | 6.19 | 5.76 |  |  |  |  |  | 
17 | Nc1ncnc2c1c(-c1cccs1)cn2[C@@H]1SC[C@@H](O)[C@H]1O [Compound 13c] | ++ | +++ | +++ | ++ | 5.47 | 5.39 | 5.29 | 5.54 | 5.56 | 5.15 |  |  |  |  |  | 
